Test results: patent US20030229451A1, “Methods and systems for analyzing complex biological systems” (priority 2001, published 2003)

Key:
[1] = tested on: Saccharomyces cerevisiae wild type strain BY4743; test: AF1 combined gene expression and metabolite mapping to reactions and pathways (KEGG); assay type: cell-based
Description: The pathway score indicates how meaningful the mapping is, or how likely it is to be correctly indicative of the pathway involved in the perturbation under examination. The method provides a pathway score based on perturbation levels of genes and/or compounds and the information content of each gene and/or compound in the pathway, i.e., a pathway score indicates the extent to which other pathways are mapped to a gene/compound. For example, imagine that two genes are perturbed in a particular experiment. One gene maps to only one pathway, giving a high degree of probability that the perturbed pathway is the one identified in the mapping. The second gene maps to three pathways. In the later example, there is only one-third the probability that the pathway identified in the mapping is the one perturbed. The present invention provides a method for calculating the pathway scores, so that more weight is given to a score of a gene or compound that maps to only one pathway than to a score of a gene or compound that maps to multiple pathways. […] Where n=the total number of genes in the pathway; ipath—count=the number of pathways containing a gene; and j=the number of genes in the pathway that are perturbed. Another factor to be considered when weighting a pathway score is the degree of perturbation. Degree of perturbation can be calculated, for example, based on a number of standard deviations from a norm, and included in an equation such as the one shown above, so that not only the number of pathways is taken into account, but also accounts for the amount of gene transcript or compound present as compared to a control. The data were then combined to determine the number of reactions showing an enzyme and at least one compound perturbed, and to determine the number of pathways having at least one enzyme and one perturbed compound perturbed. The results of the analysis are represented in Tables 16 and 17, and were difficult to interpret, illustrating that the ability to draw conclusions from compound mapping to pathways is limited when absent additional data.

[2] = tested on: Saccharomyces cerevisiae wild type strain BY4743; test: AF1 metabolite analysis (GC-MS, LC-MS) of yeast cells treated with antifungal drugs; assay type: cell-based; conditions: P < 0.1; 2x MIC, two hours
Arabidopsis thaliana [3] = test: MOA1 biochemical (metabolite) profiling by LC-MS and GC-MS
[4] = tested on: Arabidopsis thaliana plants; test: SOA1 phenotypic analysis of herbicide-treated Arabidopsis (MIC, Tmic, leaf traits); assay type: in vivo; conditions: for leafCurling Dev. / leafTwisting Dev. / leafWidth Dev. / matureLeafAnthocyanins Dev. / matureLeafChlorosis Dev. / matureLeafNecrosis Dev. / newLeafAnthocyanins Dev. / newLeafChlorosis Dev. / newLeafNecrosis Dev. / pointedLeaves Dev.: numeric value standardized to mock treated; for tMic Dev.: time to full range of symptoms at MIC, coded
Arabidopsis thaliana [5] = test: MOA1 gene expression profiling (22,000 gene array)
[6] = tested on: N-starved Arabidopsis plants; conditions: nitrate addition to N-starved plants; cited from earlier work

Row | SMILES | Number of Metabolites Changed: (unknown #) (Arabidopsis thaliana [3]; 20 min, p < 0.05) | Number of Metabolites Changed: Total # (Arabidopsis thaliana [3]; 20 min, p < 0.05) | Number of Metabolites Changed: (unknown #) (Arabidopsis thaliana [3]; 20 min, p < 0.11) | Number of Metabolites Changed: Total # (Arabidopsis thaliana [3]; 20 min, p < 0.11) | Number of Metabolites Changed: (unknown #) (Arabidopsis thaliana [3]; 1 hr, p < 0.05) | Number of Metabolites Changed: Total # (Arabidopsis thaliana [3]; 1 hr, p < 0.05) | Number of Metabolites Changed: (unknown #) (Arabidopsis thaliana [3]; 1 hr, p < 0.11) | Number of Metabolites Changed: Total # (Arabidopsis thaliana [3]; 1 hr, p < 0.11) | leafCurling Dev. [4] | leafTwisting Dev. [4] | leafWidth Dev. [4] | matureLeafAnthocyanins Dev. [4] | matureLeafChlorosis Dev. [4] | matureLeafNecrosis Dev. [4] | newLeafAnthocyanins Dev. [4] | newLeafChlorosis Dev. [4] | newLeafNecrosis Dev. [4] | pointedLeaves Dev. [4] | tMic Dev. [4] | further results
1 | CC(=O)N1CCN(c2ccc(OCC3COC(Cn4ccnc4)(c4ccc(Cl)cc4Cl)O3)cc2)CC1 (centres unmarked) [Ketoconazole] |  |  |  |  |  |  |  |  |  |  |  |  |  |  |  |  |  |  |  | # Reactions Having an Enzyme and at Least One Compound Perturbed [1]: 21; Number Of Pathways Having at Least One Enzyme and One Compound Perturbed (# Reactions) [1]: 24; # Compounds perturbed [2]: 15
2 | CCc1cccc(C)c1N(C(=O)CCl)C(C)COC (centres unmarked) [Metolachlor] | 25 | 38 | 34 | 54 | 11 | 18 | 22 | 45 | 2 | 1 | −1 | 0 | 0 | 3 | 0 | 0 | 3 | 1 | 2 | 
3 | O=C(O)c1ccccc1C(=O)Nc1cccc2ccccc12 [Naptalam] | 11 | 28 | 16 | 39 | 9 | 13 | 23 | 46 |  |  |  |  |  |  |  |  |  |  |  | Regulated Genes: Down (Arabidopsis thaliana [5]; 1 hr, p < 0.5): 47; Regulated Genes: Up (Arabidopsis thaliana [5]; 1 hr, p < 0.5): 50; No. of Lethal Genes Altered (Arabidopsis thaliana [5]; genes essential for plant growth and development): 3
4 | O=[N+]([O-])O [Nitrate] |  |  |  |  |  |  |  |  |  |  |  |  |  |  |  |  |  |  |  | Nitrate Regulation of Glutamate synthetase [6]: ↑; Nitrate Regulation of Glutamine synthetase (2) [6]: ↑; Nitrate Regulation of MADs Box (2) [6]: ↓; Nitrate Regulation of MYB transcription factor [6]: ↑; Nitrate Regulation of Malate Dehydrogenase [6]: ↑; Nitrate Regulation of Nitrate transporter [6]: ↑; Nitrate Regulation of Phosphate transporter [6]: ↑; Nitrate Regulation of Transaldolase [6]: ↑; Nitrate Regulation of Transketolase [6]: ↑
5 | C[n+]1ccc(-c2cc[n+](C)cc2)cc1 [Paraquat] | 5 | 9 | 9 | 14 | 15 | 22 | 31 | 50 | 2 | 0 | −1 | 0 | 1 | 4 | 0 | 1 | 4 | 1 | 2 | characteristic morphological symptoms ([4]; herbicide-treated Arabidopsis): rapid and widespread leaf necrosis
